Structures are written as SMILES. Values joined by “and” are separate entries in the source; they are usually repeats but may differ in a detail not shown here. Equal values may be shown once. Toxic doses and inconclusive results are not listed.

This passage reports T/C results from PubChem BioAssay AID256 (DTP/NCI, 2004).

This experiment has as its system CD2F1 mice, L1210 leukemia ip, survival T/C. Description: NCI In Vivo Anticancer Drug Screen. Data for tumor model L1210 Leukemia (intraperitoneal) in CD2F1 (CDF1) mice. Conditions: higher = longer survival. The gist of the method:
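Antitumor effect is scored in animals hosting a serially transplanted tumor. Values compare compound-dosed animals against vehicle-only controls as a simple quotient.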

[1] abbreviates: endpoint: mean survival time, dose: 12.5 mg/kg/injection, schedule: Q01DX009 (ip), vehicle: saline with Tween-80.
Setting [2] is: endpoint: mean survival time, dose: 25.0 mg/kg/injection, schedule: Q01DX009 (ip), vehicle: saline with Tween-80.
Where [3] appears, read: endpoint: mean survival time, dose: 50.0 mg/kg/injection, schedule: Q01DX009 (ip), vehicle: saline with Tween-80.

As for `OC(C1CO1)C(O)C1CO1` (stereo not drawn), the T/C was 101 % of control (endpoint: mean survival time, dose: 0.13 mg/kg/injection, schedule: Q03HX008 (ip), vehicle: saline); 105 % of control (endpoint: mean survival time, dose: 0.25 mg/kg/injection, schedule: Q03HX008 (ip), vehicle: saline); 104 % of control (endpoint: mean survival time, dose: 0.25 mg/kg/injection, schedule: Q03HX016 (ip), vehicle: saline); 104 % of control (endpoint: mean survival time, dose: 0.25 mg/kg/injection, schedule: Q03HX024 (ip), vehicle: saline); 117 % of control and 119 % of control and 121 % of control (endpoint: mean survival time, dose: 0.5 mg/kg/injection, schedule: Q01DX009 (ip), vehicle: saline); 104 % of control (endpoint: mean survival time, dose: 0.5 mg/kg/injection, schedule: Q01DX009 (sc), vehicle: saline). In addition, the T/C (endpoint: mean survival time, dose: 0.5 mg/kg/injection, schedule: Q03HX008 (ip), vehicle: saline) was 112 % of control; the T/C (endpoint: mean survival time, dose: 0.5 mg/kg/injection, schedule: Q03HX016 (ip), vehicle: saline) was 115 % of control; the T/C (endpoint: mean survival time, dose: 1.0 mg/kg/injection, schedule: Q01DX001 (ip), vehicle: saline) was 98 % of control and 108 % of control; the T/C (endpoint: mean survival time, dose: 1.0 mg/kg/injection, schedule: Q01DX001 (sc), vehicle: saline) is 106 % of control; the T/C (endpoint: mean survival time, dose: 1.0 mg/kg/injection, schedule: Q01DX009 (sc), vehicle: saline) is 114 % of control; the T/C (endpoint: mean survival time, dose: 1.0 mg/kg/injection, schedule: Q03HX024 (ip), vehicle: saline) was 177 % of control. Besides, the T/C (endpoint: mean survival time, dose: 1.0 mg/kg/injection, schedule: Q04DX003 (ip), vehicle: saline) was 107 % of control; the T/C (endpoint: mean survival time, dose: 1.4 mg/kg/injection, schedule: Q04DX003 (ip), vehicle: saline) was 96 % of control; the T/C (endpoint: mean survival time, dose: 2.0 mg/kg/injection, schedule: Q01DX001 (ip), vehicle: saline) is 116 % of control and 111 % of control; the T/C (endpoint: mean survival time, dose: 2.0 mg/kg/injection, schedule: Q01DX001 (sc), vehicle: saline) was 111 % of control; the T/C (endpoint: mean survival time, dose: 2.0 mg/kg/injection, schedule: Q03HX008 (ip), vehicle: saline) was 171 % of control; the T/C (endpoint: mean survival time, dose: 2.0 mg/kg/injection, schedule: Q03HX016 (ip), vehicle: saline) is 201 % of control. Also, the T/C reads like this: (endpoint: mean survival time, dose: 2.0 mg/kg/injection, schedule: Q03HX024 (ip), vehicle: saline) 109 % of control; (endpoint: mean survival time, dose: 2.0 mg/kg/injection, schedule: Q04DX003 (ip), vehicle: saline) 123 % of control and 104 % of control and 112 % of control; (endpoint: mean survival time, dose: 2.0 mg/kg/injection, schedule: Q08DX002 (ip), vehicle: saline) 118 % of control; (endpoint: mean survival time, dose: 3.0 mg/kg/injection, schedule: Q01DX009 (ip), vehicle: saline) 192 % of control; (endpoint: mean survival time, dose: 3.0 mg/kg/injection, schedule: Q04DX003 (ip), vehicle: saline) 119 % of control; (endpoint: mean survival time, dose: 4.0 mg/kg/injection, schedule: Q01DX001 (ip), vehicle: saline) 115 % of control and 121 % of control. In addition, the T/C by setting is: (endpoint: mean survival time, dose: 4.0 mg/kg/injection, schedule: Q01DX001 (sc), vehicle: saline) 112 % of control; (endpoint: mean survival time, dose: 4.0 mg/kg/injection, schedule: Q01DX009 (ip), vehicle: saline) 204 % of control and 247 % of control; (endpoint: mean survival time, dose: 4.0 mg/kg/injection, schedule: Q01DX009 (sc), vehicle: saline) 163 % of control; (endpoint: mean survival time, dose: 4.6 mg/kg/injection, schedule: Q01DX009 (ip), vehicle: saline) 182 % of control; (endpoint: mean survival time, dose: 4.6 mg/kg/injection, schedule: Q04DX003 (ip), vehicle: saline) 162 % of control; (endpoint: mean survival time, dose: 5.0 mg/kg/injection, schedule: Q01DX001 (ip), vehicle: saline) 123 % of control. Also, the T/C is 171 % of control (endpoint: mean survival time, dose: 6.7 mg/kg/injection, schedule: Q04DX003 (ip), vehicle: saline); 156 % of control (endpoint: mean survival time, dose: 7.0 mg/kg/injection, schedule: Q01DX001 (ip), vehicle: saline); 106 % of control (endpoint: mean survival time, dose: 7.0 mg/kg/injection, schedule: Q01DX009 (ip), vehicle: saline); 190 % of control (endpoint: mean survival time, dose: 7.0 mg/kg/injection, schedule: Q04DX003 (ip), vehicle: saline); 155 % of control and 156 % of control (endpoint: mean survival time, dose: 8.0 mg/kg/injection, schedule: Q01DX001 (ip), vehicle: saline); 96 % of control and 97 % of control (endpoint: mean survival time, dose: 8.0 mg/kg/injection, schedule: Q01DX009 (ip), vehicle: saline). Besides, the T/C reads like this: (endpoint: mean survival time, dose: 8.0 mg/kg/injection, schedule: Q01DX009 (sc), vehicle: saline) 105 % of control; (endpoint: mean survival time, dose: 8.0 mg/kg/injection, schedule: Q04DX003 (ip), vehicle: saline) 189 % of control and 446 % of control; (endpoint: mean survival time, dose: 8.0 mg/kg/injection, schedule: Q08DX002 (ip), vehicle: saline) 184 % of control; (endpoint: mean survival time, dose: 10.0 mg/kg/injection, schedule: Q04DX003 (ip), vehicle: saline) 288 % of control; (endpoint: mean survival time, dose: 10.6 mg/kg/injection, schedule: Q01DX009 (ip), vehicle: saline) 100 % of control; (endpoint: mean survival time, dose: 10.6 mg/kg/injection, schedule: Q04DX003 (ip), vehicle: saline) 243 % of control. In addition, the T/C (endpoint: mean survival time, dose: 16.0 mg/kg/injection, schedule: Q01DX001 (ip), vehicle: saline) was 175 % of control; the T/C (endpoint: mean survival time, dose: 16.0 mg/kg/injection, schedule: Q01DX001 (sc), vehicle: saline) is 174 % of control; the T/C (endpoint: mean survival time, dose: 16.0 mg/kg/injection, schedule: Q04DX003 (ip), vehicle: saline) was 116 % of control; the T/C (endpoint: mean survival time, dose: 16.0 mg/kg/injection, schedule: Q08DX002 (ip), vehicle: saline) was 162 % of control; the T/C (endpoint: mean survival time, dose: 20.0 mg/kg/injection, schedule: Q01DX001 (ip), vehicle: saline) was 92 % of control; the T/C (endpoint: median survival time, dose: 2.0 mg/kg/injection, schedule: Q01DX001 (ip), vehicle: saline) was 119 % of control and 104 % of control. Also, the T/C reads like this: (endpoint: median survival time, dose: 4.0 mg/kg/injection, schedule: Q01DX001 (ip), vehicle: saline) 117 % of control; (endpoint: median survival time, dose: 4.0 mg/kg/injection, schedule: Q03DX003 (ip), vehicle: saline) 175 % of control and 222 % of control; (endpoint: median survival time, dose: 6.0 mg/kg/injection, schedule: Q03DX003 (ip), vehicle: saline) 189 % of control and 266 % of control; (endpoint: median survival time, dose: 8.0 mg/kg/injection, schedule: Q03DX003 (ip), vehicle: saline) 206 % of control and 253 % of control; (endpoint: median survival time, dose: 12.0 mg/kg/injection, schedule: Q03DX003 (ip), vehicle: saline) 229 % of control; (endpoint: median survival time, dose: 16.0 mg/kg/injection, schedule: Q01DX001 (ip), vehicle: saline) 168 % of control and 182 % of control. In addition, the T/C by setting is: (endpoint: median survival time, dose: 32.0 mg/kg/injection, schedule: Q01DX001 (ip), vehicle: saline) 113 % of control and 104 % of control; (endpoint: median survival time, dose: 64.0 mg/kg/injection, schedule: Q01DX001 (ip), vehicle: saline) 117 % of control and 105 % of control.

Take `[N-]=[N+]=NC1=C(Br)C(=O)OC1COC(=O)c1ccccc1` (stereo not drawn): the T/C is, setting by setting: (endpoint: mean survival time, dose: 50.0 mg/kg/injection, schedule: Q04DX002 (ip), vehicle: saline with Tween-80) 90 % of control; (endpoint: mean survival time, dose: 100.0 mg/kg/injection, schedule: Q04DX002 (ip), vehicle: saline with Tween-80) 90 % of control.

On to `Cc1c(Cl)cccc1N=Cc1ccc2c(c1)OCO2`, for which the T/C runs as follows: (endpoint: mean survival time, dose: 100.0 mg/kg/injection, schedule: Q04DX003 (ip), vehicle: Klucel (hydroxypropylcellulose) (HPC)) 102 % of control; (endpoint: mean survival time, dose: 200.0 mg/kg/injection, schedule: Q04DX003 (ip), vehicle: Klucel (hydroxypropylcellulose) (HPC)) 96 % of control; (endpoint: mean survival time, dose: 400.0 mg/kg/injection, schedule: Q04DX003 (ip), vehicle: Klucel (hydroxypropylcellulose) (HPC)) 102 % of control.

Consider `COc1cc(/C=N\NC(=O)CNC(=O)Nc2cccc(Cl)c2)ccc1O`, for which the T/C reads like this: under setting [1], 91 % of control; under setting [2], 91 % of control; under setting [3], 91 % of control.

Regarding `O=C(C#Cc1ccccc1)c1ccccc1`, the T/C is, setting by setting: (endpoint: mean survival time, dose: 3.12 mg/kg/injection, schedule: Q01DX009 (ip), vehicle: Klucel (hydroxypropylcellulose) (HPC)) 86 % of control and 98 % of control; (endpoint: mean survival time, dose: 6.25 mg/kg/injection, schedule: Q01DX009 (ip), vehicle: Klucel (hydroxypropylcellulose) (HPC)) 92 % of control and 97 % of control; (endpoint: mean survival time, dose: 12.5 mg/kg/injection, schedule: Q01DX009 (ip), vehicle: Klucel (hydroxypropylcellulose) (HPC)) 92 % of control and 104 % of control; (endpoint: mean survival time, dose: 25.0 mg/kg/injection, schedule: Q01DX009 (ip), vehicle: Klucel (hydroxypropylcellulose) (HPC)) 86 % of control and 107 % of control; (endpoint: mean survival time, dose: 50.0 mg/kg/injection, schedule: Q01DX009 (ip), vehicle: Klucel (hydroxypropylcellulose) (HPC)) 89 % of control.

For the compound `O=C(CNC(=O)NCc1ccco1)N/N=C/c1cc(Br)ccc1O`, the T/C is 94 % of control under setting [1]; 94 % of control under setting [2]; 96 % of control under setting [3]; 100 % of control (endpoint: mean survival time, dose: 200.0 mg/kg/injection, schedule: Q01DX009 (ip), vehicle: saline with Tween-80).
